Measurements published in patent US10034861B2 (priority 2016, dated 2018).
Read-outs that look alike come from different tables or passages of the source.

What was measured:
Assay type in all cases: biochemical
PDE1A = PDE1A (Homo sapiens (Human), UniProt P54750); experiment: biochemical
Excerpt: (§1) Table 1 lists the IC50 value for inhibition of PDE1 by the compounds of the invention. […] PDE1 assays are described in the Experimental Section.

PDE1C = PDE1C (Homo sapiens (Human), UniProt Q14123); experiment: biochemical
Sequence of PDE1C (Q14123 whole entry): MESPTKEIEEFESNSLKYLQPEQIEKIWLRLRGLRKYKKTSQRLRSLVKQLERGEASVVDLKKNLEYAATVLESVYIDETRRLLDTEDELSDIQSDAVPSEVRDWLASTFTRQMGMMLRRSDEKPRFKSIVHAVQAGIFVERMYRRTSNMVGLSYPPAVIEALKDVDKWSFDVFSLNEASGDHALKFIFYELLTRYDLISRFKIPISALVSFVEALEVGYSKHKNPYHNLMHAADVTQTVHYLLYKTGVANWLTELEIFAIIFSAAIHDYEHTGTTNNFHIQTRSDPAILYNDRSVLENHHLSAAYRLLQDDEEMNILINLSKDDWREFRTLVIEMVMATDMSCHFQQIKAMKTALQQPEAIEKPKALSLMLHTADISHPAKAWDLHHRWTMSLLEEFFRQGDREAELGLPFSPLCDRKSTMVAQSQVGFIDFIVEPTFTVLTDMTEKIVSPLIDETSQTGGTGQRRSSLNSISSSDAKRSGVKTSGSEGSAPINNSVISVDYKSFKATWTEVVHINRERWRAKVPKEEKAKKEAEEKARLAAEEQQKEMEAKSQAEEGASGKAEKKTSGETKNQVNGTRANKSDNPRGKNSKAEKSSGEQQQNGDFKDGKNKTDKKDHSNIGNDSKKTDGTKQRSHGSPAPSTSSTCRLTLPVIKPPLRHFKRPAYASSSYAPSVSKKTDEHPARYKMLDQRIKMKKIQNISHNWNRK
Excerpt: as §1

PDE1B = PDE1B (Homo sapiens (Human), UniProt Q01064); experiment: PDE1 inhibition assay (PDE1B); conditions: 15 nM tritium labelled cAMP, 1 hr at room temperature, SPA beads
Sequence of PDE1B (Q01064 whole entry): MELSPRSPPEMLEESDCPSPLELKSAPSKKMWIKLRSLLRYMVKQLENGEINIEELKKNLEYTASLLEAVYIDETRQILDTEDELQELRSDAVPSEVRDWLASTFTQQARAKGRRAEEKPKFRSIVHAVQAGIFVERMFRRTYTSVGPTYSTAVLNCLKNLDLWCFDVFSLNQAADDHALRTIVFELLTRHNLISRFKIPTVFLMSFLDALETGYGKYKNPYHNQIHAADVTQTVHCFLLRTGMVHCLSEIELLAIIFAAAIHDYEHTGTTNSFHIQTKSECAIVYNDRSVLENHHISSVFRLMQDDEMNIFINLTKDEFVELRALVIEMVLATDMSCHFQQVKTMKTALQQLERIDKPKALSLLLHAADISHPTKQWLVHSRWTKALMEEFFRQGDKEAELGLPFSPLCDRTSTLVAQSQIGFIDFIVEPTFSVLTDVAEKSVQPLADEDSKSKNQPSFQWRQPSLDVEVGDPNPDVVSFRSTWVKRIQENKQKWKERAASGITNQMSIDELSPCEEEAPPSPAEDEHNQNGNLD
Excerpt: as §1

[1] = 15 nM tritium labelled cAMP, 1 hr at room temperature, SPA beads

Sequence of PDE1A (P54750 whole entry): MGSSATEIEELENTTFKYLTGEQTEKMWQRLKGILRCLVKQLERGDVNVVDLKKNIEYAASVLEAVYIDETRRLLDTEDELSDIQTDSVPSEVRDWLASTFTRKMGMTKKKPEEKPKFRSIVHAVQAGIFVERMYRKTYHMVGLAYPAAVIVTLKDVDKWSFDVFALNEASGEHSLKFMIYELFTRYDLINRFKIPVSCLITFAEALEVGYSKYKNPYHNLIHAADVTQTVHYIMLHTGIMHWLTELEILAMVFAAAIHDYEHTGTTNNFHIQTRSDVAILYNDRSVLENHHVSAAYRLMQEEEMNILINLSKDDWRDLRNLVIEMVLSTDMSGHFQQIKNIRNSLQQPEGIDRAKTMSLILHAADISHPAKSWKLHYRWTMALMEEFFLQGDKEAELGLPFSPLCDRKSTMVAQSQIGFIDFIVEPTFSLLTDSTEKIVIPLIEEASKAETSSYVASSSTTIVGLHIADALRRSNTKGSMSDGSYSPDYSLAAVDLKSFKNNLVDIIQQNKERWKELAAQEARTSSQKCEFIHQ

Structure (SMILES)	IC50 (PDE1A; [1])	IC50 (PDE1C; [1])	IC50 (PDE1B; read-out: PDE1B, IC50)	IC50 (PDE1A)	IC50 (PDE1B; PDE1B, IC50 (nM))	IC50 (PDE1C)
CCCOc1ncccc1-c1cc(NCc2nc[nH]n2)c2c(n1)c(C)nn2C(C)C [Example 146, 1-isopropyl-3-methyl-5-(2-propoxy-3-pyridyl)-N-(1H-1,2,4-triazol-3-ylmethyl)pyrazolo[4,3-b]pyridin-7-amine]	3.9 nM	14 nM	0.51 nM	–	–	–
CCOc1ncccc1-c1cc(NCc2cc[nH]n2)c2c(cnn2C(C)C)n1 [Example 57, 5-(2-ethoxy-3-pyridyl)-1-isopropyl-N-(1H-pyrazol-3-ylmethyl)pyrazolo[4,3-b]pyridin-7-amine]	98 nM	170 nM	4.8 nM	–	–	–
CCOc1ncccc1-c1cc(NCc2cc(C)on2)c2c(n1)c(C)nn2C(C)C [Example 3, 5-(2-ethoxy-3-pyridyl)-1-isopropyl-3-methyl-N-[(5-methylisoxazol-3-yl)methyl]pyrazolo[4,3-b]pyridin-7-amine]	0.8 nM	3 nM	0.11 nM	–	–	–
CCOc1ncccc1-c1cc(NCc2cnn(C)c2)c2c(cnn2C2COC2)n1 [Example 14, 5-(2-ethoxypyridin-3-yl)-N-((1-methyl-1H-pyrazol-4-yl)methyl)-1-(oxetan-3-yl)-1H-pyrazolo[4,3-b]pyridin-7-amine]	450 nM	300 nM	38 nM	–	–	–
Cc1nn(C(C)C)c2c(NCc3cnn(C)c3)cc(-c3cnnn3C)nc12 [Example 169, 1-isopropyl-3-methyl-N-[(1-methylpyrazol-4-yl)methyl]-5-(3-methyltriazol-4-yl)pyrazolo[4,3-b]pyridin-7-amine]	610 nM	170 nM	85 nM	–	–	–
CCOc1ncccc1CNc1cc(-c2cccnc2OCC)nc2c(C)nn(C(C)C)c12 [Example 191, 5-(2-ethoxy-3-pyridyl)-N-[(2-ethoxy-3-pyridyl)methyl]-1-isopropyl-3-methyl-pyrazolo[4,3-b]pyridin-7-amine]	160 nM	400 nM	10 nM	–	–	–
CCOc1ncccc1-c1cc(NCc2cc[nH]n2)c2c(n1)c(C)nn2C(C)C [Example 39, 5-(2-ethoxy-3-pyridyl)-1-isopropyl-3-methyl-N-(1H-pyrazol-3-ylmethyl)pyrazolo[4,3-b]pyridin-7-amine]	8.1 nM	13 nM	0.43 nM	–	–	–
CCOc1ncccc1-c1cc(NCc2ncccc2OC)c2c(n1)c(C)nn2C(C)C [Example 118, 5-(2-ethoxy-3-pyridyl)-1-isopropyl-N-[(3-methoxy-2-pyridyl)methyl]-3-methyl-pyrazolo[4,3-b]pyridin-7-amine]	13 nM	88 nM	0.42 nM	–	–	–
CCOc1ncccc1-c1cc(SCc2cnn(C)c2)c2c(n1)c(C)nn2C(C)C [Example 164, 5-(2-ethoxy-3-pyridyl)-1-isopropyl-3-methyl-7-[(1-methylpyrazol-4-yl)methylsulfanyl]pyrazolo[4,3-b]pyridine]	–	25 nM	–	6.8 nM	1.6 nM	–
Cc1nn(C(C)C)c2c(NCc3ncn(C)n3)cc(-c3ccc[nH]c3=O)nc12 [Example 186, 3-[1-isopropyl-3-methyl-7-[(1-methyl-1,2,4-triazol-3-yl)methylamino]pyrazolo[4,3-b]pyridin-5-yl]-1H-pyridin-2-one]	64 nM	130 nM	15 nM	–	–	–
COc1ncccc1CNc1cc(-c2cccnc2OC(F)F)nc2c(C)nn(C(C)C)c12 [Example 188, 5-[2-(difluoromethoxy)-3-pyridyl]-1-isopropyl-N-[(2-methoxy-3-pyridyl)methyl]-3-methyl-pyrazolo[4,3-b]pyridin-7-amine]	61 nM	60 nM	7.8 nM	–	–	–
COc1ncccc1CNc1cc(-c2ccnn2C)nc2c(C)nn(C(C)C)c12 [Example 175, 1-isopropyl-N-((2-methoxypyridin-3-yl)methyl)-3-methyl-5-(1-methyl-1H-pyrazol-5-yl)-1H-pyrazolo[4,3-b]pyridin-7-amine]	83 nM	130 nM	17 nM	–	–	–
CCOc1ncccc1-c1cc(NCc2nc(C)co2)c2c(n1)c(C)nn2C(C)C [Example 50, 5-(2-ethoxypyridin-3-yl)-1-isopropyl-3-methyl-N-((4-methyloxazol-2-yl)methyl)-1H-pyrazolo[4,3-b]pyridin-7-amine 2,2,2-trifluoroacetate]	9 nM	–	0.5 nM	–	–	–
CCOc1ncccc1-c1cc(NCc2cnn(C(F)F)c2)c2c(n1)c(C)nn2C(C)C [Example 165, N-[[1-(difluoromethyl)pyrazol-4-yl]methyl]-5-(2-ethoxy-3-pyridyl)-1-isopropyl-3-methyl-pyrazolo[4,3-b]pyridin-7-amine]	–	–	–	73 nM	5.9 nM	–
Cc1sccc1-c1cc(NCc2cnn(C)c2)c2c(n1)c(C)nn2C(C)C [Example 65, 1-isopropyl-3-methyl-N-[(1-methylpyrazol-4-yl)methyl]-5-(2-methyl-3-thienyl)pyrazolo[4,3-b]pyridin-7-amine]	7.9 nM	–	1.2 nM	–	–	–
Cc1nn(C(C)C)c2c(NCc3cnn(C)c3)cc(-c3cccn(C)c3=O)nc12 [Example 49, 3-(1-isopropyl-3-methyl-7-(((1-methyl-1H-pyrazol-4-yl)methyl)amino)-1H-pyrazolo[4,3-b]pyridin-5-yl)-1-methylpyridin-2(1H)-one]	–	420 nM	20 nM	–	–	–
CCOc1ncccc1-c1cc(NCc2cc[nH]n2)c2c(n1)c(C)nn2C(C)CC (single isomer, unassigned) [Example 119, 5-(2-ethoxy-3-pyridyl)-3-methyl-1-[1-methylpropyl]-N-(1H-pyrazol-3-ylmethyl)pyrazolo[4,3-b]pyridin-7-amine]	–	–	–	–	0.56 nM	29 nM
CCOc1ncccc1-c1cc(NCc2nc[nH]n2)c2c(n1)c(C)nn2C(C)C [Example 98, 5-(2-ethoxy-3-pyridyl)-1-isopropyl-3-methyl-N-(1H-1,2,4-triazol-3-ylmethyl)pyrazolo[4,3-b]pyridin-7-amine]	–	21 nM	0.58 nM	–	–	–
CCOc1ncccc1-c1cc(NCc2noc(C)n2)c2c(n1)c(C)nn2C(C)CC (single isomer, unassigned) [Example 128, 5-(2-ethoxy-3-pyridyl)-3-methyl-N-[(5-methyl-1,2,4-oxadiazol-3-yl)methyl]-1-[1-methylpropyl]pyrazolo[4,3-b]pyridin-7-amine]	–	–	–	–	0.26 nM	–
CCOc1ncccc1-c1cc(NCc2cnc(C)o2)c2c(n1)c(C)nn2C(C)CC (single isomer, unassigned) [Example 133, 5-(2-ethoxy-3-pyridyl)-3-methyl-N-[(2-methyloxazol-5-yl)methyl]-1-[1-methylpropyl]pyrazolo[4,3-b]pyridin-7-amine]	–	–	–	–	1.3 nM	–
CCOc1ncccc1-c1cc(NCc2cc(CF)on2)c2c(n1)c(C)nn2C(C)C [Example 166, 5-(2-ethoxy-3-pyridyl)-N-[[5-(fluoromethyl)isoxazol-3-yl]methyl]-1-isopropyl-3-methyl-pyrazolo[4,3-b]pyridin-7-amine]	–	–	0.16 nM	–	–	–
CCOc1ncccc1-c1cc(NCc2nc(C)cs2)c2c(n1)c(C)nn2C(C)C [Example 29, 5-(2-ethoxypyridin-3-yl)-1-isopropyl-3-methyl-N-((4-methylthiazol-2-yl)methyl)-1H-pyrazolo[4,3-b]pyridin-7-amine]	–	–	1.1 nM	–	–	–
